Experimental data taken from US8124793B2, “Derivatives of ethylene methanedisulfonate as cancer chemotherapeutic agents” (priority 2007, dated 2012).

Legend:
Format in all cases: cell-based
SK-MEL-5 = experiment: NCI screen, growth of human tumor cells: Melanoma SK-MEL-5; settings: SK-MEL-5 (Melanoma), 10^−4 molar
Experimental: (§1) In the NCI screening process, each compound was tested and described by a minimum of 60 data points. The test data include, but are not limited to the type of cancer, the molar concentration used in the screen, and the percent growth of the cancer. In some cases, NMR and elemental analysis were used for structural assignment.

SK-MEL-28 = experiment: NCI screen, growth of human tumor cells: Melanoma SK-MEL-28; settings: SK-MEL-28 (Melanoma), 10^−4 molar
Experimental: as §1

MCF7/ADR-RES = experiment: NCI screen, growth of human tumor cells: Breast Cancer MCF7/ADR-RES; settings: MCF7/ADR-RES (Breast Cancer), 10^−4 molar
Experimental: as §1

U-251 = experiment: NCI screen, growth of human tumor cells: CNS Cancer U-251; settings: U-251 (CNS Cancer), 10^−4 molar
Experimental: as §1

SF-295 = experiment: NCI screen, growth of human tumor cells: CNS Cancer SF-295; settings: SF-295 (CNS Cancer), 10^−4 molar
Experimental: as §1

HCT-15 = experiment: NCI screen, growth of human tumor cells: Colon Cancer HCT-15; settings: HCT-15 (Colon Cancer), 10^−4 molar
Experimental: as §1

HL-60 (TB) = experiment: NCI screen, growth of human tumor cells: Leukemia HL-60 (TB); settings: HL-60 (TB) (Leukemia), 10^−4 molar
Experimental: as §1

ACHN = experiment: NCI screen, growth of human tumor cells: Renal Cancer ACHN; settings: ACHN (Renal Cancer), 10^−4 molar
Experimental: as §1

SF-539 = experiment: NCI screen, growth of human tumor cells: CNS Cancer SF-539; settings: SF-539 (CNS Cancer), 10^−4 molar
Experimental: as §1

OVCAR-3 = experiment: NCI screen, growth of human tumor cells: Ovarian Cancer OVCAR-3; settings: OVCAR-3 (Ovarian Cancer), 10^−4 molar
Experimental: as §1

M14 = experiment: NCI screen, growth of human tumor cells: Melanoma M14; settings: M14 (Melanoma), 10^−4 molar
Experimental: as §1

NCI-H460 = experiment: NCI screen, growth of human tumor cells: Non-Small Cell Lung NCI-H460; settings: NCI-H460 (Non-Small Cell Lung), 10^−4 molar
Experimental: as §1

PC-3 = experiment: NCI screen, growth of human tumor cells: Prostate Cancer PC-3; settings: PC-3 (Prostate Cancer), 10^−4 molar
Experimental: as §1

RPMI-8226 = experiment: NCI screen, growth of human tumor cells: Leukemia RPMI-8226; settings: RPMI-8226 (Leukemia), 10^−4 molar
Experimental: as §1

SW620 = experiment: NCI screen, growth of human tumor cells: Colon Cancer SW620; settings: SW620 (Colon Cancer), 10^−4 molar
Experimental: as §1

UO-31 = experiment: NCI screen, growth of human tumor cells: Renal Cancer UO-31; settings: UO-31 (Renal Cancer), 10^−4 molar
Experimental: as §1

RXF-393 = experiment: NCI screen, growth of human tumor cells: Renal Cancer RXF-393; settings: RXF-393 (Renal Cancer), 10^−4 molar
Experimental: as §1

human cancer cells = experiment: NCI screen summary over the cancers tested (negative growth of human cancer cells); settings: 10^−4 M conc.; cancers with negative growth / cancers tested
Experimental: as §1
The derivatives in the tables are grouped using the same category as in the tables 1-6.

HCT-116 = experiment: NCI screen, growth of human tumor cells: Colon Cancer HCT-116; settings: HCT-116, 10^−4 molar
Experimental: as §1

OVCAR-4 = experiment: NCI screen, growth of human tumor cells: Ovarian Cancer OVCAR-4; settings: OVCAR-4 (Ovarian Cancer), 10^−4 molar
Experimental: as §1

LOXIMVI = experiment: NCI screen, growth of human tumor cells: Melanoma LOXIMVI; settings: LOXIMVI (Melanoma), 10^−4 molar
Experimental: as §1

K562 = experiment: NCI screen, growth of human tumor cells: Leukemia K562; settings: K562 (Leukemia), 10^−4 molar
Experimental: as §1

SR = experiment: NCI screen, growth of human tumor cells: Leukemia SR; settings: SR (Leukemia), 10^−4 molar
Experimental: as §1

HS 578T = experiment: NCI screen, growth of human tumor cells: Breast Cancer HS 578T; settings: HS 578T (Breast Cancer), 10^−4 molar
Experimental: as §1

HOP-92 = experiment: NCI screen, growth of human tumor cells: Non-Small Cell Lung HOP-92; settings: HOP-92 (Non-Small Cell Lung), 10^−4 molar
Experimental: as §1

MDA-MB-231/ATCC = experiment: NCI screen, growth of human tumor cells: Breast Cancer MDA-MB-231/ATCC; settings: MDA-MB-231/ATCC (Breast Cancer), 10^−4 molar
Experimental: as §1

UACC-62 = experiment: NCI screen, growth of human tumor cells: Melanoma UACC-62; settings: UACC-62, 10^−4 molar
Experimental: as §1

MCF 7 = experiment: NCI screen, growth of human tumor cells: Breast Cancer MCF 7; settings: MCF 7 (Breast Cancer), 10^−4 molar
Experimental: as §1

OVCAR-8 = experiment: NCI screen, growth of human tumor cells: Ovarian Cancer OVCAR-8; settings: OVCAR-8 (Ovarian Cancer), 10^−4 molar
Experimental: as §1

NCI-H23 = experiment: NCI screen, growth of human tumor cells: Non-Small Cell Lung NCI-H23; settings: NCI-H23 (Non-Small Cell Lung), 10^−4 molar
Experimental: as §1

MDA-MB-435 = experiment: NCI screen, growth of human tumor cells: Breast Cancer MDA-MB-435; settings: MDA-MB-435, 10^−4 molar
Experimental: as §1

BT-549 = experiment: NCI screen, growth of human tumor cells: Breast Cancer BT-549; settings: BT-549 (Breast Cancer), 10^−4 molar
Experimental: as §1

DU-145 = experiment: NCI screen, growth of human tumor cells: Prostate Cancer DU-145; settings: DU-145 (Prostate Cancer), 10^−4 molar
Experimental: as §1

UACC-257 = experiment: NCI screen, growth of human tumor cells: Melanoma UACC-257; settings: UACC-257, 10^−4 molar
Experimental: as §1

SN12C = experiment: NCI screen, growth of human tumor cells: Renal Cancer SN12C; settings: SN12C (Renal Cancer), 10^−4 molar
Experimental: as §1

CAKI-1 = experiment: NCI screen, growth of human tumor cells: Renal Cancer CAKI-1; settings: CAKI-1 (Renal Cancer), 10^−4 molar
Experimental: as §1

HOP-62 = experiment: NCI screen, growth of human tumor cells: Non-Small Cell Lung HOP-62; settings: HOP-62 (Non-Small Cell Lung), 10^−4 molar
Experimental: as §1

SF-268 = experiment: NCI screen, growth of human tumor cells: CNS Cancer SF-268; settings: SF-268 (CNS Cancer), 10^−4 molar
Experimental: as §1

`O=C1C(Cl)=C(C2S(=O)(=O)OCCOS2(=O)=O)C(=O)c2ccccc21` [NSC 731260, ethylene 3-chloro-1,4-naphtho-2-quinoylmethanedisulfonate] was tested, and the “percent of growth of human tumor cells” value (SK-MEL-5) was −54%, the “percent of growth of human tumor cells” value (SK-MEL-28) was −5% and the “percent of growth of human tumor cells” value (MCF7/ADR-RES) was 25%. For the same molecule, the “percent of growth of human tumor cells” value (U-251) was 2%, the “percent of growth of human tumor cells” value (SF-295) was −46% and the “percent of growth of human tumor cells” value (HCT-15) was 17%. For the same molecule, the “percent of growth of human tumor cells” value (HL-60 (TB)) was 13%, the “percent of growth of human tumor cells” value (ACHN) was −12% and the “percent of growth of human tumor cells” value (SF-539) was 1%. The “percent of growth of human tumor cells” value (OVCAR-3) was 28%, the “percent of growth of human tumor cells” value (M14) was −58% and the “percent of growth of human tumor cells” value (NCI-H460) was 4%. For the same molecule, the “percent of growth of human tumor cells” value (PC-3) was 9%, the “percent of growth of human tumor cells” value (RPMI-8226) was −36% and the “percent of growth of human tumor cells” value (SW620) was 1%. For the same molecule, the “percent of growth of human tumor cells” value (UO-31) was 30%, the “percent of growth of human tumor cells” value (RXF-393) was 28% and the “Percentage of cancers showing negative growth cancers tested” value (human cancer cells) was 10^−4 M conc. = 16/37 = 43%. For the same molecule, the “% Growth” value (HCT-116) was −89%, the “percent of growth of human tumor cells” value (OVCAR-4) was 11% and the “percent of growth of human tumor cells” value (LOXIMVI) was −43%. For the same molecule, the “percent of growth of human tumor cells” value (K562) was 20%, the “percent of growth of human tumor cells” value (SR) was 15% and the “percent of growth of human tumor cells” value (HS 578T) was 8%. The “percent of growth of human tumor cells” value (HOP-92) was −3%, the “percent of growth of human tumor cells” value (MDA-MB-231/ATCC) was −15% and the “% Growth” value (UACC-62) was −86%. For the same molecule, the “percent of growth of human tumor cells” value (MCF 7) was 6%, the “percent of growth of human tumor cells” value (OVCAR-8) was 18% and the “percent of growth of human tumor cells” value (NCI-H23) was −54%. The “% Growth” value (MDA-MB-435) was −79%, the “percent of growth of human tumor cells” value (BT-549) was −32% and the “percent of growth of human tumor cells” value (DU-145) was 12%. For the same molecule, the “% Growth” value (UACC-257) was −74%, the “percent of growth of human tumor cells” value (SN12C) was −12% and the “percent of growth of human tumor cells” value (CAKI-1) was 18%. For the same molecule, the “percent of growth of human tumor cells” value (HOP-62) was −56% and the “percent of growth of human tumor cells” value (SF-268) was 10%.
